# Source: patent US12138256B2, “Treatment of cardiopulmonary disorders” (Bayer Aktiengesellschaft, priority 2021, dated 2024)
# Where “and” joins values, the source holds several entries; their conditions need not be identical. Identical values can stand only once.
# Tests used:
# [1] = tested on: thromboxane analog U46619 induced PAH in minipigs; test: PAH minipig model: comparison with and on top of standard of care (bosentan, sildenafil, riociguat); assay type: in vivo, Göttingen minipig; conditions: for BP decrease % / PAP decrease %: % change per animal
# Text: Efficacy of inhaled comparative example 11 was compared with systemically applied bosentan, sildenafil and riociguat (see FIG. 53a) in the PAH minipig model. […] Therefore inhaled application of comparative example 11 offers clear benefits as systemic effects are avoided, compared to standard of care.
# [2] = tested on: hypoxia induced PAP increase in conscious dogs; test: Haemodynamics in conscious hypoxia challenged dogs (C-2.2); assay type: in vivo, dog; design: PAP, absolute values for each animal: unit: mmHg; conditions: for mPAP decrease during Hypoxia, each animal / mPAP decrease during Hypoxia, mean +/− SEM: n = 3
# Description: Experiments were carried out in anesthetized Göttingen minipigs, anesthetized rats and conscious, telemetrically instrumented dogs. Acute pulmonary hypertension was induced for example by infusion of a thromboxane A2 analogon, by acute hypoxia treatment or hypoxia treatment over a number of weeks and/or by administration of monocrotaline. Test substances were applied via nebulization using the Nebutec® or Aeroneb® Pro nebulizer system, and/or by means of powder and/or solution applicators for experimental intratracheal administration (Liquid MicroSprayer®, Dry Powder Insufflator™, MicroSprayer®, Penn-Century Inc., Wyndmoor, PA, USA) or after solid nebulization inserted into the inspiration arm of the ventilation. Compounds were employed as solids or solutions depending on the molecular structure and the technical possibility depending on the experiment. The haemodynamic signals were recorded and evaluated by means of pressure transducers/amplifiers (Combitransducer B. Braun, Melsungen, Germany or CardioMEMS Inc., Atlanta, GA, USA) and Ponemah® or CardioMems® as data aquisition software. After long-term experiments (for example monocrotaline rat), it is also possible to carry out a histological evaluation.
# We evaluated the lung-selectivity and duration of effects of comparative example 11 under conscious conditions, in another species, and under a more physiological stimulus for PAP increase. Dogs were exposed to hypoxia for 30 minutes to induce a hypoxia-mediated PAP increase and comparative example 11 (100 μg/kg nominal dose) was applied by inhalation 1, 5, 12, 16 and 24 hours before hypoxia.
# The hypoxic dog model was also used to compare different drug candidates wrt duration of action under conscious conditions.
# [3] = Caco-2 permeability test (C-5.1); assay type: in vitro ADME, human; conditions: human
# Description: The in vitro permeation of a test compound across a Caco-2 cell monolayer is a well-established assay system to predict the permeability from the gastro-intestinal tract (1). The permeability of the compounds of the present invention in such Caco-2 cells was determined as described below:
# Human caco-2 cells were seeded on 24-well insert plates and were allowed to grow for 14-16 days. For permeability studies, the test compounds were dissolved in DMSO and diluted to the final test concentration of 2 μM with transport buffer [Hanks' Buffered Salt Solution, Gibco/Invitrogen, further supplemented with glucose and HEPES]. For determination of the apical to basolateral permeability (PappA-B), the test compound solution was added to the apical side of the cell monolayer and transport buffer to the basolateral side of the monolayer; for determination of the basolateral to apical permeability (PappB-A), the test compound solution was added to the basolateral side of the cell monolayer and transport buffer to the apical side of the monolayer. Samples were taken from the donor compartment at the beginning of the experiment to confirm mass balance. After an incubation of 2 h at 37° C., samples were taken from both compartments. Samples were analyzed by LC-MS/MS, and the apparent permeability coefficients were calculated. Lucifer Yellow permeability was assayed for each cell monolayer to ensure cell monolayer integrity, and the permeability of Atenolol (low permeability marker) and Sulfasalazine (marker for active excretion) was determined for each batch as quality control.
# [4] = Protein binding via Transil assay, rat plasma; assay type: in vitro ADME; conditions: Rat Wistar plasma, Transil assay
# Text: The distribution of a test substance between Transil® (phosphatidylcholine lipid bilayers immobilized on silica beads) and plasma is a characteristic feature of any pharmaceutical compound and is dependent on its extent of binding to plasma proteins. By comparing the distribution between Transil® and buffer with the distribution between Transil® and plasma of any species of interest, the unbound fraction in the plasma of the respective animal species can be calculated in vitro. The respective plasma and buffer concentrations were determined via a radioactivity analysis. A detailed description of the method and its validation was published by Schuhmacher et al. (2).
# [5] = 30 μg/kg inhaled on top of Bosentan 1 mg/kg
# [6] = 30 μg/kg inhaled on top of Riociguat 3 μg/kg/h
# [7] = 30 μg/kg inhaled on top of Sildenafil 300 μg/kg/h
# [8] = 30 μg/kg nominal dose inhaled, alone
# [9] = 100 μg/kg nominal dose inhaled, 1-2 h post inhalation
# [10] = 100 μg/kg nominal dose inhaled, 5-6 h post inhalation
# [11] = 100 μg/kg nominal dose inhaled, 12-13 h post inhalation
# [12] = 100 μg/kg nominal dose inhaled, 16-17 h post inhalation
# [13] = 100 μg/kg nominal dose inhaled, 24-25 h post inhalation
smiles,measurement,setting,value
"O=C(O)c1ccc(CCN(CCc2ccccc2OCc2ccc(-c3ccc(C(F)(F)F)cc3)cc2Cl)[C@H]2CCCc3nc(C(=O)O)ccc32)cc1 [comparative example 11, (5S)-5-{[2-(4-carboxyphenyl)ethyl][2-(2-{[3-chloro-4′-(trifluoromethyl)[biphenyl]-4-yl]methoxy}phenyl)ethyl]amino}-5,6,7,8-tetrahydroquinoline-2-carboxylic acid]",BP decrease %,[1]; [5],−12.8% and 3.6%
same,PAP decrease %,[1]; [5],−29.7% and −27.1%
same,BP decrease %,[1]; [6],3.1% and −1.1% and 11.5%
same,PAP decrease %,[1]; [6],−29.7% and −24.2% and −26.3%
same,BP decrease %,[1]; [7],−6.9% and −6.4% and 1.2%
same,PAP decrease %,[1]; [7],−33.6% and −36.9% and −42.8%
same,BP decrease %,[1]; [8],−6.8% and 1.6% and 3.5%
same,PAP decrease %,[1]; [8],−19.9% and −22.8% and −21.7%
same,BP decrease %,[1]; 100 μg/kg nominal dose inhaled,−4.5% and −9.9% and −3.1%
same,PAP decrease %,[1]; 100 μg/kg nominal dose inhaled,−33.1% and −45.1% and −38.2%
same,"efficacy regarding PAP on top of bosentan, sildenafil or riociguat",[1]; comparative example 11 30 μg/kg inhaled,maintained its efficacy regarding PAP
same,effects on HR,[2]; 100 μg/kg nominal dose inhaled,No effects on HR
same,"PAP, absolute values for each animal","[2]; 100 μg/kg nominal dose inhaled 1 h before hypoxia, time 4 min",10 and 13 and 8
same,"PAP, absolute values for each animal","[2]; 100 μg/kg nominal dose inhaled 1 h before hypoxia, time 6 min",12 and 13 and 8
same,"PAP, absolute values for each animal","[2]; 100 μg/kg nominal dose inhaled 1 h before hypoxia, time 8 min",10 and 12 and 9
same,"PAP, absolute values for each animal","[2]; 100 μg/kg nominal dose inhaled 16 h before hypoxia, time 22 min",23 (2×) and 12
same,"PAP, absolute values for each animal","[2]; 100 μg/kg nominal dose inhaled 16 h before hypoxia, time 24 min",21 and 27 and 14
same,"PAP, absolute values for each animal","[2]; 100 μg/kg nominal dose inhaled 16 h before hypoxia, time 26 min",23 and 24 and 12
same,"PAP, absolute values for each animal","[2]; 100 μg/kg nominal dose inhaled 16 h before hypoxia, time 28 min",21 and 25 and 15
same,"PAP, absolute values for each animal","[2]; 100 μg/kg nominal dose inhaled 16 h before hypoxia, time 30 min",21 and 23 and 14
same,"PAP, absolute values for each animal","[2]; 100 μg/kg nominal dose inhaled 16 h before hypoxia, time 32 min",18 and 26 and 16
same,"PAP, absolute values for each animal","[2]; 100 μg/kg nominal dose inhaled 16 h before hypoxia, time 34 min",18 and 28 and 15
same,"PAP, absolute values for each animal","[2]; 100 μg/kg nominal dose inhaled 16 h before hypoxia, time 36 min",17 and 25 and 18
same,"PAP, absolute values for each animal","[2]; 100 μg/kg nominal dose inhaled 16 h before hypoxia, time 38 min",18 and 27 and 17
same,"PAP, absolute values for each animal","[2]; 100 μg/kg nominal dose inhaled 16 h before hypoxia, time 40 min",17 (2×) and 28
same,"PAP, absolute values for each animal","[2]; 100 μg/kg nominal dose inhaled 16 h before hypoxia, time 42 min",9 and 19 and 13
same,"PAP, absolute values for each animal","[2]; 100 μg/kg nominal dose inhaled 16 h before hypoxia, time 44 min",7 and 18 and 9
same,"PAP, absolute values for each animal","[2]; 100 μg/kg nominal dose inhaled 16 h before hypoxia, time 46 min",7 and 18 and 6
same,"PAP, absolute values for each animal","[2]; 100 μg/kg nominal dose inhaled 16 h before hypoxia, time 48 min",6 and 16 and 9
same,"PAP, absolute values for each animal","[2]; 100 μg/kg nominal dose inhaled 16 h before hypoxia, time 50 min",7 and 15 and 8
same,"PAP, absolute values for each animal","[2]; 100 μg/kg nominal dose inhaled 24 h before hypoxia, time 0 min",10 and 15 (2×)
same,"PAP, absolute values for each animal","[2]; 100 μg/kg nominal dose inhaled 24 h before hypoxia, time 2 min",9 and 14 and 12
same,"PAP, absolute values for each animal","[2]; 100 μg/kg nominal dose inhaled 24 h before hypoxia, time 4 min",8 and 14 and 10
same,"PAP, absolute values for each animal","[2]; 100 μg/kg nominal dose inhaled 24 h before hypoxia, time 6 min",8 and 16 and 11
same,"PAP, absolute values for each animal","[2]; 100 μg/kg nominal dose inhaled 24 h before hypoxia, time 8 min",8 and 14 and 9
same,"PAP, absolute values for each animal","[2]; 100 μg/kg nominal dose inhaled 24 h before hypoxia, time 10 min",9 and 11 and 10
same,"PAP, absolute values for each animal","[2]; 100 μg/kg nominal dose inhaled 24 h before hypoxia, time 12 min",20 (2×) and 15
same,"PAP, absolute values for each animal","[2]; 100 μg/kg nominal dose inhaled 24 h before hypoxia, time 14 min",23 and 22 and 19
same,"PAP, absolute values for each animal","[2]; 100 μg/kg nominal dose inhaled 24 h before hypoxia, time 16 min",27 and 24 and 22
same,"PAP, absolute values for each animal","[2]; 100 μg/kg nominal dose inhaled 24 h before hypoxia, time 18 min",27 and 26 and 20
same,"PAP, absolute values for each animal","[2]; 100 μg/kg nominal dose inhaled 24 h before hypoxia, time 20 min",29 (2×) and 23
same,"PAP, absolute values for each animal","[2]; 100 μg/kg nominal dose inhaled 24 h before hypoxia, time 22 min",27 and 30 and 22
same,"PAP, absolute values for each animal","[2]; 100 μg/kg nominal dose inhaled 24 h before hypoxia, time 24 min",26 and 28 and 22
same,"PAP, absolute values for each animal","[2]; 100 μg/kg nominal dose inhaled 24 h before hypoxia, time 26 min",24 and 29 and 17
same,"PAP, absolute values for each animal","[2]; 100 μg/kg nominal dose inhaled 24 h before hypoxia, time 28 min",26 and 29 and 20
same,"PAP, absolute values for each animal","[2]; 100 μg/kg nominal dose inhaled 24 h before hypoxia, time 30 min",24
same,"efficacy (PAP decrease), head to head","[2]; 100 μg/kg nominal dose inhaled, up to 6 hrs after inhalation",comparable efficacy
same,"mPAP decrease during Hypoxia, each animal",[2]; [9],−12.44 mmHg and −11.44 mmHg and −10.13 mmHg
same,"mPAP decrease during Hypoxia, mean +/− SEM",[2]; [9],−11.33 ± 0.67 mmHg
same,"mPAP decrease during Hypoxia, each animal",[2]; [10],−16.13 mmHg and −5.44 mmHg and −8.75 mmHg
same,"mPAP decrease during Hypoxia, mean +/− SEM",[2]; [10],−10.10 ± 3.16 mmHg
same,"mPAP decrease during Hypoxia, each animal",[2]; [11],−3.44 mmHg and −4.81 mmHg and −1.69 mmHg
same,"mPAP decrease during Hypoxia, mean +/− SEM",[2]; [11],−3.31 ± 0.90 mmHg
same,"mPAP decrease during Hypoxia, each animal",[2]; [12],−2.25 mmHg and −4.25 mmHg and −3.00 mmHg
same,"mPAP decrease during Hypoxia, mean +/− SEM",[2]; [12],−3.17 ± 0.58 mmHg
same,"mPAP decrease during Hypoxia, each animal",[2]; [13],−0.13 mmHg and −1.94 mmHg and −0.50 mmHg
same,"mPAP decrease during Hypoxia, mean +/− SEM",[2]; [13],−0.85 ± 0.55 mmHg
same,"PAP decrease, head to head","[2]; 100 μg/kg nominal dose, 12 and 16 hrs after inhalation",more effective PAP decrease for comparative example 11 compared to comparative example 4
same,"Papp at 2 h, 2 μM","[3]; Caco-2, 2 μM, 2 h at 37° C.",1.51 ×10⁻⁶ cm/s
same,"efflux ratio at 2 h, 2 μM",[3]; Caco-2 (2 μM),0.64 ± 0.1
same,"Papp A→B at 2 h, 2 μM","[3]; Caco-2 (2 μM), concentration per compound 2.0 or 2.4 μM, read-out: Papp A-B (mean +/− SD)",1.51 ± 0.17 ×10⁻⁶ cm/s
same,"Papp B→A at 2 h, 2 μM","[3]; Caco-2 (2 μM), concentration per compound 2.0 or 2.4 μM, read-out: Papp B-A (mean +/− SD)",0.97 ± 0.06 ×10⁻⁶ cm/s
same,fraction unbound,[4],0.00224
